Assay [1] concerns P388 leukemia cell lines. In words: In vitro cytotoxicity, P388 leukemia cells (SRB). The class given is cell-based. Particulars: for IC50: P388, 48 hours incubation, read-out: ED50 for P-388 Cell Line. The procedure: (§1) Newly prepared compounds were evaluated for cytotoxic activity against a variety of cell lines derived from human tumors using an assay system similar to the National Cancer Institute procedure previously described (Monks et al, J. Natl. Cancer Inst., 1991). Briefly, the cell suspensions, diluted according to the particular cell type and the expected target cell density (5,000-40,000 cells per well based on cell growth characteristics), were added by pipet (100 μl) to 96-well microtiter plates. Inoculates were allowed a preincubation time of 24-28 hours at 37° C. for stabilization. Incubation with the inhibitor compounds lasted for 48 hours in […] atmosphere and 100% humidity. Determination of cell growth was performed by in situ fixation of cells, followed by staining with a protein-binding dye sulforhodamine B (SRB), which binds to the basic amino acids of cellular macromolecules. The solubilized stain was measured spectrophotometrically.
(§2) Several compounds were evaluated for cytotoxic activity against […] P388 leukemia cell lines. The effective dose or ED50 value (defined as the effective dosage required to inhibit 50% of cell growth) was measured. These and additional compounds were evaluated in terms of growth inhibitory activity against several other human cancer cell lines including: central nervous system (“CNS”, SF-268), pancreas (BXPC-3), non-small cell lung cancer (“lung-NCS”, NCI-H460), breast (MCF-7), colon (KM20L2), ovarian (OVCAR-3), and prostate (DU-145). The growth inhibition GI50(defined as the dosage required to inhibit tumor cell growth by 50%) is listed for each cell line.

For assay [2], the system named is KM20L2. In words: Growth inhibition, KM20L2 colon cancer cells (SRB). Type of assay: cell-based. Particulars: Homo sapiens, KM-20L2, 48 hours incubation, read-out: GI50 for Cell Line KM20L2. The procedure:
as §1, §2

Assay [3] concerns DU-145. In words: Growth inhibition, DU-145 prostate cancer cells (SRB). The class given is cell-based. Particulars: Homo sapiens, 48 hours incubation, read-out: GI50 for Cell Line DU-145. The procedure:
as §1, §2

The test system of assay [4] is NCI-H460. In words: Growth inhibition, NCI-H460 non-small cell lung cancer cells (SRB). The class given is cell-based. Particulars: Homo sapiens, 48 hours incubation, read-out: GI50 for Cell Line NCI-H460. The procedure: as §1, §2
The test system of assay [5] is MCF-7. In words: Growth inhibition, MCF-7 breast cancer cells (SRB). The class given is cell-based. Particulars: Homo sapiens, MCF7, 48 hours incubation, read-out: GI50 for Cell Line MCF-7. As for the experimental part: as §1, §2
For assay [6], the system named is SF-268. In words: Growth inhibition, SF-268 CNS cancer cells (SRB). The class given is cell-based. Particulars: Homo sapiens, 48 hours incubation, read-out: GI50 for Cell Line SF-268. As for the experimental part: as §1, §2
For assay [7], the system named is purified tubulin. In words: In vitro inhibition of tubulin polymerization. The class given is biochemical, bovine. Particulars: 1.5 mg/ml tubulin, 15 min preincubation at 37° C., GTP-induced, 350 nm. The procedure:
IC50 values for tubulin polymerization were determined according to a previously described procedure (Bai et al., Cancer Research, 1996). Purified tubulin is obtained from bovine brain cells as previously described (Hamel and Lin, Biochemistry, 1984). Various amounts of inhibitor were preincubated for 15 minutes at 37° C. with purified tubulin. After the incubation period, the reaction was cooled and GTP was added to induce tubulin polymerization. Polymerization was then monitored in a Gilford spectrophotometer at 350 nm. The final reaction mixtures (0.25 ml) contained 1.5 mg/ml tubulin, 0.6 mg/ml microtubule-associated proteins (MAPs), 0.5 mM GTP, 0.5 mM MgCl2, 4% DMSO and 0.1M 4-morpholineethanesulfonate buffer (MES, pH 6.4). IC50 is the amount of inhibitor needed to inhibit tubulin polymerization 50% with respect to the amount of […] that occurs in the absence of inhibitor.

Assay [8] has as its system BXPC-3. In words: Growth inhibition, BXPC-3 pancreas cancer cells (SRB). The class given is cell-based. Particulars: Homo sapiens, 48 hours incubation, read-out: GI50 for Cell Line BXPC-3. As for the experimental part: as §1, §2
Assay [9] has as its system MHEC-5T hemangioendothelioma tumor. In words: Inhibition of tumor blood flow, Fluorescent Bead Assay. Type of assay: in vivo, SCID mice. Particulars: 24 hours post-treatment, vessel area per tumor tissue area as percentage of control. As for the experimental part: The antivascular effects of the chromene phosphate prodrug were assessed in tumor-bearing mice using a Fluorescent Bead Assay. A MHEC-5T hemangioendothelioma tumor model was established by subcutaneous injection of 0.5×10^6 cultured transformed cell murine myocardial vascular endothelial cell line (“MHEC5-T”) cells into the right flank of Fox Chase CB-17 Severe Combined Immunodeficient (“SCID”) mice. […] At 24 hours post-treatment, mice were injected intravenously with 0.25 ml of diluted FluoSphere beads (1:6 in physiological saline) in the tail vein, sacrificed after 3 minutes, and tumor was excised for cryosectioning. Tumor cryosections at a thickness of 8 um were directly examined using quantitative fluorescent microscopy. Blood vessels were indicated by blue fluorescence from injected beads. For quantification, image analysis of 3 sections from three tumors treated in each group were examined and vascular shutdown was expressed as vessel area (mm^2) per tumor tissue area (mm^2) as a percentage of the control (“% VAPM”).

≈ marks a conversion by molar mass, not a printed value. Where a name gives a salt, the structure may show the parent alone.

What is called GI50 is the concentration at which growth is held to half of that of the control.

Turning to `COc1cc2c(cc1OC)OCC(C(=O)c1cc(OC)c(OC)c(OC)c1)=C2` [Compound 13, 3-(3′,4′,5′-Trimethoxybenzoyl)-6,7-dimethoxy-2H-chromene], the IC50 in assay [1] is 2.5 µg/mL (≈ 6.47 µM); in assay [7], 20 µM. Further, the concentration for 50% growth inhibition (GI50) in assay [2] was 0.4 µg/mL (≈ 1.04 µM); in assay [3], 0.42 µg/mL (≈ 1.09 µM); in assay [4] it was 0.4 µg/mL (≈ 1.04 µM); in assay [5] it was 0.56 µg/mL (≈ 1.45 µM); in [6], 0.5 µg/mL (≈ 1.29 µM); in [8] it was 0.38 µg/mL (≈ 0.983 µM).
Turning to `COc1cc(C(=O)C2=Cc3ccc(O)c(O)c3OC2)cc(OC)c1OC` [Compound 17, 3-(3′,4′,5′-Trimethoxybenzoyl)-7,8-dihydroxy-2H-chromene], the IC50 in [1] was 1.8 µg/mL (≈ 5.02 µM); in [7], 10 to 20 µM. For the same molecule, the GI50 was 6.3 µg/mL (≈ 17.6 µM) in [2]; 0.23 µg/mL (≈ 0.642 µM) in [3]; 0.34 µg/mL (≈ 0.949 µM) in assay [4]; 0.48 µg/mL (≈ 1.34 µM) in assay [5]; 0.32 µg/mL (≈ 0.893 µM) in [6]; 3 µg/mL (≈ 8.37 µM) in [8].
On to `COc1ccc2c(c1)OCC(C(=O)c1cc(OC)c(OC)c(OC)c1)=C2` [Compound 8, 3-(3′,4′,5′-Trimethoxybenzoyl)-7-methoxy-2H-chromene], for which, in [1] (48 hours incubation), the “ED50 for P-388 Cell Line” value was 2.04 µg/mL. Besides, the GI50 in [5] amounted to 0.27 µg/mL (≈ 0.758 µM). The IC50 in assay [7] was in the range of 4 to 10 µM.
Take `COc1cc(OC)c2c(c1)OCC(C(=O)c1cc(OC)c(OC)c(OC)c1)=C2` [Compound 14, 3-(3′,4′,5′-Trimethoxybenzoyl)-5,7-dimethoxy-2H-chromene]: the IC50 in assay [1] amounted to 16.3 µg/mL (≈ 42.2 µM); in assay [7] it was 20 µM. In addition, the GI50 was found to be 0.37 µg/mL (≈ 0.958 µM) in [2]; 0.24 µg/mL (≈ 0.621 µM) in assay [3]; 0.4 µg/mL (≈ 1.04 µM) in [4]; 0.47 µg/mL (≈ 1.22 µM) in assay [5]; 0.4 µg/mL (≈ 1.04 µM) in assay [6]; 0.43 µg/mL (≈ 1.11 µM) in [8].
Consider `COc1cc2c(cc1O)C=C(C(=O)c1cc(OC)c(OC)c(OC)c1)CO2` [Compound 9, 3-(3′,4′,5′-Trimethoxybenzoyl)-6-hydroxy-7-methoxy-2H-chromene], for which the values for the IC50 in assay [1] and in assay [7] were 28.2 µg/mL (≈ 75.7 µM) and more than 40 µM, respectively. The GI50 in assay [2] is more than 10 µg/mL; in assay [3], 3.9 µg/mL (≈ 10.5 µM); in [4], 5.5 µg/mL (≈ 14.8 µM); in assay [5], 7.3 µg/mL (≈ 19.6 µM); in [6], more than 10 µg/mL; in assay [8], 7.1 µg/mL (≈ 19.1 µM).
`COc1cc(C(=O)C2=Cc3ccc(OP(=O)(O)O)c(OP(=O)(O)O)c3OC2)cc(OC)c1OC` [Compound 18, 3-(3′,4′,5′-Trimethoxybenzoyl)-7,8-diphosphate-2H-chromene tetrasodium salt]: the IC50 in assay [1] is 0.56 µg/mL; in [7], more than 40 µM. In addition, the 50% growth inhibitory concentration (GI50) was more than 10 µg/mL in assay [2]; 2.2 µg/mL in assay [3]; 3.5 µg/mL in [4]; 4.2 µg/mL in [5]; 3.4 µg/mL in assay [6]; more than 10 µg/mL in assay [8].
As for `COc1cc(C(=O)C2=Cc3ccc(OC)c(OC)c3OC2)cc(OC)c1OC` [Compound 12, 3-(3′,4′,5′-Trimethoxybenzoyl)-7,8-dimethoxy-2H-chromene], the IC50 in [1] came to 0.41 µg/mL (≈ 1.06 µM); in assay [7] it was 20 µM. Also, the GI50 turned out to be 0.4 µg/mL (≈ 1.04 µM) in [2]; 0.16 µg/mL (≈ 0.414 µM) in assay [3]; 0.37 µg/mL (≈ 0.958 µM) in assay [4]; 0.48 µg/mL (≈ 1.24 µM) in assay [5]; 0.34 µg/mL (≈ 0.88 µM) in assay [6]; 0.46 µg/mL (≈ 1.19 µM) in [8].
As for `COc1ccc(/C=C\c2cc(OC)c(OC)c(OC)c2)cc1O` [CA-4, Combretastatin A-4, reference compound], the IC50 in assay [7] was […].
For the molecule `COc1cc(C(=O)C2=Cc3cccc(OP(=O)(O)O)c3OC2)cc(OC)c1OC` [Compound 16, 3-(3′,4′,5′-Trimethoxybenzoyl)-8-phosphate-2H-chromene disodium salt], the IC50 in assay [1] was 0.019 µg/mL. Further, the GI50 in [2] was found to be 5.4 µg/mL; in assay [3] it was 0.046 µg/mL; in assay [4], 0.12 µg/mL; in assay [5], 0.45 µg/mL; in [6], 0.058 µg/mL; in assay [8], 1.6 µg/mL.
Consider `COc1ccc2c(c1O)OCC(C(=O)c1cc(OC)c(OC)c(OC)c1)=C2` [Compound 5, 3-(3′,4′,5′-Trimethoxybenzoyl)-7-methoxy-8-hydroxy-2H-chromene], for which, in assay [5], the GI50 came out at 0.055 µg/mL (≈ 0.148 µM). Besides, the “% VAPM at 10 mg/kg dose” value in [9] (10 mg/kg single i.p.) is given as 80%. In [9] (100 mg/kg single i.p.), the “% VAPM at 100 mg/kg dose” value is 90%. For the same molecule, in assay [7], the IC50 fell in the range of 1 to 2 µM.
On to `COc1cc(C(=O)C2=Cc3cccc(O)c3OC2)cc(OC)c1OC` [Compound 15, 3-(3′,4′,5′-Trimethoxybenzoyl)-8-hydroxy-2H-chromene], for which the IC50 was 0.093 µg/mL (≈ 0.272 µM) in assay [1] and 2 to 4 µM in assay [7]. Further, the GI50 worked out at 4 µg/mL (≈ 11.7 µM) in assay [2]; 0.026 µg/mL (≈ 0.0759 µM) in assay [3]; 0.044 µg/mL (≈ 0.129 µM) in assay [4]; 0.21 µg/mL (≈ 0.613 µM) in [5]; 0.048 µg/mL (≈ 0.14 µM) in assay [6]; 2.4 µg/mL (≈ 7.01 µM) in assay [8].

The values are drawn from patent US7456214B2, “Chromene-containing compounds with anti-tubulin and vascular targeting activity” (Baylor University, priority 2004, dated 2008).
